Legend:
Assay in all cases: relative viability (nuclei count vs DMSO), 5 days (fraction); higher = more cells survive
Selisistat + Trametinib = compound: C1CC(C2=C(C1)C3=C(N2)C=CC(=C3)Cl)C(=O)N [Selisistat] + CC(=O)Nc1cccc(-n2c(=O)n(C3CC3)c(=O)c3c(Nc4ccc(I)cc4F)n(C)c(=O)c(C)c32)c1 [Trametinib] (partner 0.02 µM)
In short: (§1)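 Lung cancer cell lines in 1536-well plates were dosed by pin tool the day after seeding, either with one drug alone or with a fixed anchor-drug dose plus five library-drug doses (not always all listed) in √10 steps. After 5 days, cells were fixed and their nuclei stained in one step (final 0.05% Triton X-100, 1% formaldehyde, 1 ug/ml Hoechst), then counted on 4× images. Relative viability is the nuclei count in treated wells divided by that in vehicle wells. Values are medians of duplicate plates.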

Selisistat + Luminespib = compound: C1CC(C2=C(C1)C3=C(N2)C=CC(=C3)Cl)C(=O)N [Selisistat] + CCNC(=O)c1noc(-c2cc(C(C)C)c(O)cc2O)c1-c1ccc(CN2CCOCC2)cc1 [Luminespib] (partner 0.01 µM)
In short: as §1

Serdemetan + Pictilisib = compound: c1ccc2c(CCNc3ccc(Nc4ccncc4)cc3)c[nH]c2c1 [Serdemetan] + CS(=O)(=O)N1CCN(Cc2cc3nc(-c4cccc5[nH]ncc45)nc(N4CCOCC4)c3s2)CC1 [Pictilisib] (partner 1 µM)
In short: as §1

Serdemetan + Olaparib = compound: c1ccc2c(CCNc3ccc(Nc4ccncc4)cc3)c[nH]c2c1 [Serdemetan] + O=C(c1cc(Cc2n[nH]c(=O)c3ccccc23)ccc1F)N1CCN(C(=O)C2CC2)CC1 [Olaparib] (partner 8 µM)
In short: as §1

Row | Cell Line | relative viability (Selisistat + Trametinib; first compound 0.4 µM) | relative viability (Selisistat + Trametinib; first compound 1.265 µM) | relative viability (Selisistat + Trametinib; first compound 12.65 µM) | relative viability (Selisistat + Trametinib; first compound 40 µM) | relative viability (Selisistat + Luminespib; first compound 0.4 µM) | relative viability (Selisistat + Luminespib; first compound 1.265 µM) | relative viability (Selisistat + Luminespib; first compound 4 µM) | relative viability (Selisistat + Luminespib; first compound 12.65 µM) | relative viability (Selisistat + Luminespib; first compound 40 µM) | relative viability (Serdemetan + Pictilisib; first compound 0.04 µM) | relative viability (Serdemetan + Pictilisib; first compound 0.1265 µM) | relative viability (Serdemetan + Pictilisib; first compound 0.4 µM) | relative viability (Serdemetan + Pictilisib; first compound 4 µM) | relative viability (Serdemetan + Olaparib; first compound 0.04 µM) | relative viability (Serdemetan + Olaparib; first compound 0.1265 µM) | relative viability (Serdemetan + Olaparib; first compound 0.4 µM) | relative viability (Serdemetan + Olaparib; first compound 1.265 µM) | relative viability (Serdemetan + Olaparib; first compound 4 µM) | relative viability (Serdemetan + Pictilisib; first compound 1.265 µM) | relative viability (Selisistat + Trametinib; first compound 4 µM)
1 | NCI-H3122 | 0.199 | 0.258 | 0.3 | 0.213 | 0.0986 | 0.102 | 0.1 | 0.115 | 0.088 | 0.627 | 0.669 | 0.6 | 0.55 | 0.597 | 0.614 | 0.557 | 0.407 | 0.367 |  | 
2 | PC-3 [JPC-3] | 0.805 | 0.664 | 0.74 | 0.695 | 0.784 | 0.68 | 0.6 | 0.687 | 0.657 | 0.748 | 0.693 |  | 0.735 | 1.11 | 1.08 | 0.969 | 1.09 | 1.18 | 0.705 | 
3 | PC-14 | 0.723 | 0.655 | 0.825 | 0.671 | 0.141 | 0.151 |  | 0.221 | 0.311 | 0.626 | 0.631 | 0.596 | 0.367 | 0.307 | 0.261 |  | 0.204 | 0.167 | 0.634 | 0.823
4 | RERF-LC-KJ | 0.812 | 0.792 | 0.771 | 0.736 | 1.24 | 1.02 | 1.27 | 1.09 | 0.956 | 0.433 | 0.561 | 0.569 | 0.388 | 1.03 | 0.872 | 0.889 | 0.747 | 0.835 | 0.475 | 0.816
5 | SK-LU-1 | 0.598 | 0.503 | 0.51 | 0.444 | 0.202 | 0.176 | 0.189 | 0.213 | 0.227 | 0.572 | 0.47 | 0.713 | 0.407 | 0.463 | 0.369 | 0.479 | 0.308 | 0.365 | 0.494 | 0.546
6 | SK-MES-1 | 0.589 | 0.539 | 0.492 | 0.459 | 1 | 0.906 | 0.802 | 0.622 | 0.788 | 0.333 | 0.378 | 0.377 | 0.205 | 0.688 | 0.687 | 0.635 | 0.522 | 0.43 | 0.363 | 0.55
7 | SW 1573 | 0.615 | 0.505 | 0.563 | 0.565 | 0.154 | 0.135 | 0.222 | 0.206 | 0.228 | 0.533 | 0.545 | 0.494 | 0.177 | 0.571 | 0.464 | 0.445 | 0.21 | 0.296 | 0.182 | 

Source: the supplement of paper PMC10307832
